IC50 data for 23 compounds are collected here from US9073906B2, “Sulfamide derivative having an adamantyl group and its pharmaceutically acceptable salt” (KOREA RESEARCH INSTITUTE OF CHEMICAL TECHNOLOGY, priority 2011, dated 2015).

One experiment concerns the target human 11β-HSD-2 (Homo sapiens (Human), UniProt P80365). In words: HTRF analysis of inhibition of 11β-HSD-2. The experiment is classed as cell-based. To be noted: human 11β-HSD-2, HTRF. (Time-resolved FRET reads energy transfer from a long-lived donor to a nearby acceptor.)
Another experiment has as its target human 11β-HSD1 (Homo sapiens (Human), UniProt P28845). The experiment can be described thus: HTRF cortisol assay in 11β-HSD1 overexpressing CHO cells. The experiment is classed as cell-based. The following applies: human 11β-HSD1 overexpressing CHO cells, 160 nM cortisone, 3 hr at 37° C., read-out: IC50(nM) to 11β-HSD-1. The protocol: The full-length cDNA molecule coding for human or mouse 11β-HSD1 was inserted into pcDNA (Promega) as mammalian expression vectors and transformed into CHO cells for 5 hr using Lipofectamine plus (Invitrogen) in accordance with manufacturer's manual, followed by stabilization for 48 hr. The CHO cells were incubated with 0.8 μg/ml puromycin (Sigma) once every three days for two weeks to obtain human or mouse 11β-HSD1 overexpressing cells. The cells were grown and frozen, and thawed for enzyme inhibition tests.
The in vitro inhibitory activities of the novel compounds to human 11β-HSD1 were evaluated in accordance with homogenous time-resolved fluorescence (HTRF).
The human or mouse 11β-HSD1 overexpressing cells were subcultured at the number of 2.5×10^4 cells in 96-well plate and stabilized for 24 hr. […] Then, samples of the medium (10 μl) were transferred to 384-well plate and the amounts of cortisol produced were measured using a cortisol kit (Cisbio international) in accordance with manufacturer's instruction. […] Delta F value=(Ratio of compounds−Ratio of negative)/Ratio of negative×100 2. Normalized value=Delta F value of compounds−Delta F value of control 3. % inhibition=Normalized value of compounds/Normalized value of background×100 4.

Chain of human 11β-HSD-2 (P80365 whole entry): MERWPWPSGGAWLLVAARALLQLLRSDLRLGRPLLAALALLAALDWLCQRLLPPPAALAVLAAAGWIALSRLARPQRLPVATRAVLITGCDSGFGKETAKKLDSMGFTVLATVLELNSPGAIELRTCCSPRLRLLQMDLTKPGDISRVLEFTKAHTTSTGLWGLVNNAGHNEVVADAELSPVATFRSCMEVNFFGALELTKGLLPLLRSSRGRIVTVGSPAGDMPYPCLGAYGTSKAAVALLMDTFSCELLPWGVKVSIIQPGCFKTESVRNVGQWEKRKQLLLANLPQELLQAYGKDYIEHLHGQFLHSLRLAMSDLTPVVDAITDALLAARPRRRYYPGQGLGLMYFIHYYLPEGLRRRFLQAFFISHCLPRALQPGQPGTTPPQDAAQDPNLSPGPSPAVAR
Chain of human 11β-HSD1 (P28845 whole entry): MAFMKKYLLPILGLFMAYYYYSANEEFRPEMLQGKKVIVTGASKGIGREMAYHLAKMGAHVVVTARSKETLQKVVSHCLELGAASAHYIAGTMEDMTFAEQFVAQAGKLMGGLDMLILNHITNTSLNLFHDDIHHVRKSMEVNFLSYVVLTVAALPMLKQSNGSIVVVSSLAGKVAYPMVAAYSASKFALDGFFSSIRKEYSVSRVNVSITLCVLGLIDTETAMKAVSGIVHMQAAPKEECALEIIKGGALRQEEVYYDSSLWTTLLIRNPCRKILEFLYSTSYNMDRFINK

Turning to `C=C1CN(CC(=O)NC2C3CC4CC2CC(C(N)=O)(C4)C3)S(=O)(=O)N(c2c(Cl)cc(Cl)cc2Cl)C1` (centres unmarked) [Compound 175, 4-(2-(4-methylene-1,1-dioxido-6-(2,4,6-trichlorophenyl)-1,2,6-thiadiazinan-2-yl)acetamido)adamantan-1-carboxamide], the values for the IC50 at human 11β-HSD-2 and at human 11β-HSD1 were > 10000 nM and 14 nM, respectively.
On to `C[C@H]1CN(CC(=O)NC2C3CC4CC2CC(C(N)=O)(C4)C3)S(=O)(=O)N(c2c(Cl)cc(C(F)(F)F)cc2Cl)C1` (stereo partly drawn) [Compound 195, 4-(2-((S)-6-(2,6-dichloro-4-(trifluoromethyl)phen-yl)-4-methyl-1,1-dioxido-1,2,6-thiadiazinan-2-yl)acetamido)adamantan-1-carboxamide], for which the IC50 at human 11β-HSD-2 was > 10000 nM.
Turning to `NC(=O)C12CC3CC(C1)C(NC(=O)CN1CCCN(c4ccccc4F)S1(=O)=O)C(C3)C2` (centres unmarked) [Compound 59, 4-(2-(6-(2-fluorophenyl)-1,1-dioxido-1,2,6-thiadiazinan-2-yl)-acetamido)adamantan-1-carboxamide], the IC50 on human 11β-HSD-2 is > 10000 nM; on human 11β-HSD1, 14 nM.
The corresponding values for `C[C@@H]1CN(CC(=O)NC2C3CC4CC2CC(C(N)=O)(C4)C3)S(=O)(=O)N(c2c(Cl)cc(C(F)(F)F)cc2Cl)C1` (stereo partly drawn) [Compound 196, 4-(2-((R)-6-(2,6-dichloro-4-(trifluoromethyl)phen-yl)-4-methyl-1,1-dioxido-1,2,6-thiadiazinan-2-yl)acetamido)adamantan-1-carboxamide] are > 10000 nM and 1.3 nM.
The corresponding values for `NC(=O)C12CC3CC(C1)C(NC(=O)CN1CCCN(c4c(Cl)cc(Cl)cc4Cl)S1(=O)=O)C(C3)C2` (centres unmarked) [Compound 88, 4-(2-(1,1-dioxido-6-(2,4,6-trichlorophenyl)-1,2,6-thiadiazinan-2-yl)acetamido)adamantan-1-carboxamide] are > 10000 nM and 0.2 nM.
The corresponding values for `CC1(C)CN(CC(=O)NC2C3CC4CC2CC(C(N)=O)(C4)C3)S(=O)(=O)N(c2c(Cl)cc(Cl)cc2Cl)C1` (centres unmarked) [Compound 177, 4-(2-(4,4-dimethyl-1,1-dioxido-6-(2,4,6-trichlorophenyl)-1,2,6-thiadiazinan-2-yl)acetamido)adamantan-1-carboxamide] are > 10000 nM and 5 nM.
For the compound `CC1CN(CC(=O)NC2C3CC4CC2CC(C(N)=O)(C4)C3)S(=O)(=O)N(c2c(Cl)cc(Cl)cc2Cl)C1` (centres unmarked) [Compound 156, 4-(2-(4-methyl-1,1-dioxido-6-(2,4,6-trichlorophenyl)-1,2,6-thiadiazinan-2-yl)acetamido)adamantan-1-carboxamide], the IC50 at human 11β-HSD-2 was > 10000 nM; at human 11β-HSD1 it was 1 nM.
For `NC(=O)C12CC3CC(C1)C(NC(=O)CN1CC4(CC4)CN(c4c(Cl)cc(Cl)cc4Cl)S1(=O)=O)C(C3)C2` (centres unmarked) [Compound 176, 4-(2-(6,6-dioxido-7-(2,4,6-trichlorophenyl)-6-thia-5,7-diazaspiro[2,5]octane-5-yl)acetamido)adamantan-1-carboxamide] the same measures were > 10000 nM and 5 nM.
With `NC(=O)C12CC3CC(C1)C(NC(=O)CN1CCCN(c4c(F)cc(F)cc4F)S1(=O)=O)C(C3)C2` (centres unmarked) [Compound 89, 4-(2-(1,1-dioxido-6-(2,4,6-trifluorophenyl)-1,2,6-thiadiazinan-2-yl)acetamido)adamantan-1-carboxamide], the IC50 on human 11β-HSD-2 is > 10000 nM; on human 11β-HSD1, 20 nM.
For `CC(C)(C)OC(=O)N1CCCN(CC(=O)NC2C3CC4CC(C3)CC2C4)S1(=O)=O` (centres unmarked) [Compound 3, tert-butyl 6-(2-(adamantan-2-ylamino)-2-oxoethyl)-1,2,6-thiadiazinan-2-carboxylate 1,1-dioxide] the same measures were > 10000 nM and 363 nM.
For `Cc1ccc(N2CCCN(CC(=O)NC3C4CC5CC(C4)CC3C5)S2(=O)=O)cc1` (centres unmarked) [Compound 24, N-(adamantan-2-yl)-2-(1,1-dioxido-6-(p-tolyl)-1,2,6-thiadiazinan-2-yl)acetamide] the same measures were > 10000 nM and 3370 nM.
For `CC1CCN(c2c(Cl)cc(Cl)cc2Cl)S(=O)(=O)N1CC(=O)NC1C2CC3CC1CC(C(N)=O)(C3)C2` (centres unmarked) [Compound 128, 4-(2-(3-methyl-1,1-dioxido-6-(2,4,6-trichlorophenyl)-1,2,6-thiadiazinan-2-yl)acetamido) adamantan-1-carboxamide] the same measures were > 10000 nM and 0.1 nM.
Consider `NC(=O)C12CC3CC(C1)C(NC(=O)CN1CCN(c4c(Cl)cc(Cl)cc4Cl)S1(=O)=O)C(C3)C2` (centres unmarked) [Compound 124, 4-(2-(1,1-dioxido-5-(2,4,6-trichlorophenyl)-1,2,5-thiadiazolidin-2-yl)acetamido) adamantan-1-carboxamide], for which the IC50 against human 11β-HSD-2 is > 10000 nM; at human 11β-HSD1, 187 nM.
The corresponding values for `O=C(CN1CCCN(Cc2ccccc2)S1(=O)=O)NC1C2CC3CC(C2)CC1C3` (centres unmarked) [Compound 5, N-(adamantan-2-yl)-2-(6-benzyl-1,1-dioxido-1,2,6-thiadiazinan-2-yl)acetamide] are > 10000 nM and 360 nM.
The corresponding values for `CN(CC(=O)NC1C2CC3CC1CC(C(N)=O)(C3)C2)S(=O)(=O)N(C)c1c(Cl)cc(Cl)cc1Cl` (centres unmarked) [Compound 123, 4-(2-(methyl(N-methyl-N-(2,4,6-trichlorophenyl)sulfa-moyl)amino)acetamido) adamantan-1-carboxamide] are > 10000 nM and 0.8 nM.
The corresponding values for `O=C(CN1CCCN(Cc2ccccc2F)S1(=O)=O)NC1C2CC3CC(C2)CC1C3` (centres unmarked) [Compound 14, N-(adamantan-2-yl)-2-(6-(2-fluorobenzyl)-1,1-dioxido-1,2,6-thiadiazinan-2-yl)acetamide] are > 10000 nM and 1660 nM.
With `CC1CN(CC(=O)NC2C3CC4CC2CC(C(N)=O)(C4)C3)S(=O)(=O)N(c2c(Cl)cc(C(F)(F)F)cc2Cl)C1` (centres unmarked) [Compound 183, (E) 4-(2-(6-(2,6-dichloro-4-(trifluoromethyl)phenyl)-4-methyl-1,1-dioxido-1,2,6-thiadiazinan-2-yl)acetamido)adamantan-1-carboxamide], the IC50 against human 11β-HSD-2 is > 10000 nM; at human 11β-HSD1, 4.8 nM.
The corresponding values for `O=C(CN1CCCN(c2ccccc2)S1(=O)=O)NC1C2CC3CC(C2)CC1C3` (centres unmarked) [Compound 2, N-(adamantan-2-yl)-(1,1-dioxido-6-phenyl-1,2,6-thiadiazinan-2-yl)acetamide] are > 10000 nM and 12 nM.
The corresponding values for `NC(=O)C12CC3CC(C1)C(NC(=O)CN1CCCN(c4cccc(F)c4)S1(=O)=O)C(C3)C2` (centres unmarked) [Compound 69, 4-(2-(6-(3-fluorophenyl)-1,1-dioxido-1,2,6-thiadiazinan-2-yl)acetamido)adamantan-1-carboxamide] are > 10000 nM and 3 nM.
As for `NC(=O)[C@]12CC3CC(C1)[C@@H](NC(=O)CN1CC(F)(F)CN(c4c(Cl)cc(Cl)cc4Cl)S1(=O)=O)C(C3)C2` [Compound 172, 4-(2-(4,4-difluoro-1,1-dioxido-6-(2,4,6-trichlorophenyl)-1,2,6-thiadiazinan-2-yl)acetamido)adamantan-1-carboxamide (E form)], at human 11β-HSD-2, the 50% inhibitory concentration (IC50) was > 10000 nM.
Take `NC(=O)C12CC3CC(C1)C(NC(=O)CN1CCCN(c4ccc(F)cc4)S1(=O)=O)C(C3)C2` (centres unmarked) [Compound 44, 4-(2-(6-(4-fluorophenyl)-1,1-dioxido-1,2,6-thiadiazinan-2-yl)acetamido)adamantan-1-carboxamide]: the figures for the IC50 on human 11β-HSD-2 and at human 11β-HSD1 were > 10000 nM and 79 nM, respectively.
For `NC(=O)C12CC3CC(C1)C(NC(=O)CN1CCCCN(c4c(Cl)cc(Cl)cc4Cl)S1(=O)=O)C(C3)C2` (centres unmarked) [Compound 122, 4-(2-(1,1-dioxido-7-(2,4,6-trichlorophenyl)-1,2,7-thiadiazepane-2-yl)acetamido) adamantan-1-carboxamide] the same measures were > 10000 nM and 0.4 nM.
The corresponding values for `NC(=O)C12CC3CC(C1)C(NC(=O)CN1CCCN(c4ccccc4)S1(=O)=O)C(C3)C2` (centres unmarked) [Compound 60, 4-(2-(1,1-dioxido-6-phenyl-1,2,6-thiadiazinan-2-yl)acetamido)adamantan-1-carboxamide] are > 10000 nM and 17 nM.

For orientation: IC50 means the concentration at which inhibition is half-maximal.
